{"source": "patent US7951385B2", "about": "“Probiotic strain and antimicrobial peptide derived therefrom” (Cipla Medpro Research and Development (Pty) Ltd., priority 2006, dated 2011)", "key": {"Enterococcus spp. HKLHS": {"test_system": "Enterococcus spp. HKLHS", "test": "β-galactosidase leakage after treatment of pathogens with peptide ST4SA", "assay_type": "cell-based", "conditions": "Control organism Enterococcus spp. HKLHS", "text": "(§1) Further evidence of cell membrane damage and leakage of cellular constituents was obtained by testing for extracellular DNA and extracellular β-galactosidase activity."}, "Klebsiella pneumoniae": {"test_system": "Klebsiella pneumoniae", "test": "β-galactosidase leakage after treatment of pathogens with peptide ST4SA", "assay_type": "cell-based", "conditions": "Klebsiella pneumoniae 30", "text": "as §1"}, "[1]": {"test_system": "Middle ear isolates (unknown)", "test": "β-galactosidase leakage after treatment of pathogens with peptide ST4SA", "assay_type": "cell-based", "text": "as §1"}, "Staphylococcus aureus": {"test_system": "Staphylococcus aureus", "test": "β-galactosidase leakage after treatment of pathogens with peptide ST4SA", "assay_type": "cell-based", "conditions": "Staphylococcus aureus 36", "text": "as §1"}, "Streptococcus pneumoniae": {"test_system": "Streptococcus pneumoniae", "test": "β-galactosidase leakage after treatment of pathogens with peptide ST4SA", "assay_type": "cell-based", "text": "as §1"}, "Streptococcus pyogenes": {"test_system": "Streptococcus pyogenes", "test": "β-galactosidase leakage after treatment of pathogens with peptide ST4SA", "assay_type": "cell-based", "conditions": "Streptococcus pyogenes 20", "text": "as §1"}, "[2]": {"assay_type": "physicochemical", "experimental": "The stability of peptide ST4SA, suspended in sterile distilled water, was tested at temperatures ranging from −20° C. to 60° C. over 42 days (FIG. 12). The peptide remained stable at −20° C. for 42 days and for three weeks at 4° C. […] Peptide ST4SA in powder form did, however, remain stable for 6 months at room temperature (25° C.). Peptide ST4SA will be produced in powder form and marketed as such. Once dissolved in sterile distilled water, peptide ST4SA may be kept for three weeks at 4° C. (see FIG. 12)."}, "[3]": {"test_system": "pathogens (Streptococcus pneumoniae, Klebsiella pneumoniae, middle ear isolates)", "test": "Cell lysis / growth inhibition of pathogens in BHI broth", "assay_type": "cell-based", "conditions": "peptide added at mid-exponential phase, BHI broth (FIGS. 15 to 23)", "experimental": "A 0.2% (v/v) inoculum of an overnight pathogen was inoculated into BHI broth. Peptide ST4SA was added to each pathogen at mid-exponential phase."}, "L. monocytogenes": {"test_system": "L. monocytogenes", "test": "L. monocytogenes challenged with ST4SA in in vitro gastro-intestinal (GIT) model", "assay_type": "cell-based, Listeria monocytogenes", "experimental": "The antimicrobial activity of ST4SA against L. monocytogenes in an in vitro gastro-intestinal model was determined. ST4SA was inoculated in the stomach vessel as described hereinbefore. L. monocytogenes (1×10^4) was inoculated in the duodenum vessel of the GIT. Samples were taken from each vessel and plated out on Enterococcus and Listeria specific medium, respectively. As control, only L. monocytogenes was inoculated in the GIT model."}, "[4]": {"test_system": "tumour necrosis factor (TNF), interferon γ (IFN)", "test": "Immune modulation (cytokine RNA hybridization, ileum and colon)", "assay_type": "in vivo, rat", "experimental": "Total RNA was extracted from the frozen ileum and colon samples using Trizol reagent. The concentration of RNA was determined by measuring the absorbance at 260 nm using a Nanodrop spectrophotometer, after DNase treatment had been completed. Each RNA sample was diluted to a concentration of 42 ng/μl. A total of 5 μg of each sample was transferred in triplicate onto a nylon membrane using a slot blot apparatus. The membrane was then probed with either a tumour necrosis factor (TNF), interferon γ (IFN) or β-actin DNA probe amplified from rat genomic DNA and labeled with DIG. The membrane was exposed to X-ray film overnight and developed."}, "[5]": {"test_system": "Lactobacillus sakei DSM 20017", "test": "Blocking of the Lipid II target site with vancomycin", "assay_type": "cell-based", "conditions": "L. sakei DSM 20017, FIG. 26", "text": "To test this hypothesis, the Lipid II target site of Lactobacillus sakei DSM 20017 (sensitive to peptide ST 4SA) was blocked with vancomycin (see schematic presentation, FIG. 26). Vancomycin adheres to the amino acid side chain of the Lipid II molecule, which would, theoretically, prevent peptide ST4SA from binding to the same site (that is if Lipid II acts as receptor). […] The fact that peptide ST4SA binds to more than one anchoring site on the sensitive cell may explain why it has such a broad spectrum of antimicrobial activity (inhibitory to Gram-positive and Gram-negative bacteria)."}, "pathogens tested": {"test_system": "pathogens tested", "test": "Adhesion of peptide ST4SA to pathogens (summary)", "assay_type": "binding", "conditions": "conclusion for the pathogens tested (Table 7)", "text": "Binding of peptide ST4SA to target cells is important to ensure penetration of the peptide. The ability of peptide ST4SA to adhere to pathogens was studied and the results were expressed as a percentage binding to the pathogens (Table 7). […] Adhesion of peptide ST4SA to the target cell leads to penetration and disruption of the cell membrane (FIG. 14)."}}, "note": "Like-named read-outs stand apart in the source and are kept apart here.", "data": [{"substance": "Peptide ST4SA: broad-spectrum antibacterial peptide (bacteriocin) produced by Enterococcus mundtii strain ST4SA, SEQ. ID. NO. 12 (MSQVVGGKYYGNGVSCNKKGCSVDWGKAIGIIGNNSAANLATGGAAGWKS; ENTEROCOCCUS MUNDTII ST4SA)", "values": [{"measurement": "β-galactosidase recorded at OD420", "setting": "Enterococcus spp. HKLHS", "result": "No leakage"}, {"measurement": "β-galactosidase recorded at OD420", "setting": "Klebsiella pneumoniae", "result": "No leakage"}, {"measurement": "β-galactosidase recorded at OD420", "setting": "[1]; Middle ear isolate BW", "result": 0.370}, {"measurement": "β-galactosidase recorded at OD420", "setting": "[1]; Middle ear isolate DW", "result": 0.293}, {"measurement": "β-galactosidase recorded at OD420", "setting": "[1]; Middle ear isolate F", "result": 0.318}, {"measurement": "β-galactosidase recorded at OD420", "setting": "[1]; Middle ear isolate GW", "result": 0.373}, {"measurement": "β-galactosidase recorded at OD420", "setting": "[1]; Middle ear isolate HW", "result": 0.235}, {"measurement": "β-galactosidase recorded at OD420", "setting": "[1]; Middle ear isolate K", "result": "No leakage"}, {"measurement": "β-galactosidase recorded at OD420", "setting": "[1]; Middle ear isolate L", "result": "No leakage"}, {"measurement": "β-galactosidase recorded at OD420", "setting": "[1]; Middle ear isolate M", "result": "No leakage"}, {"measurement": "β-galactosidase recorded at OD420", "setting": "Staphylococcus aureus", "result": "No leakage"}, {"measurement": "β-galactosidase recorded at OD420", "setting": "Streptococcus pneumoniae; Streptococcus pneumoniae 27", "result": "No leakage"}, {"measurement": "β-galactosidase recorded at OD420", "setting": "Streptococcus pneumoniae; Streptococcus pneumoniae 29", "result": "No leakage"}, {"measurement": "β-galactosidase recorded at OD420", "setting": "Streptococcus pneumoniae; Streptococcus pneumoniae D", "result": "No leakage"}, {"measurement": "β-galactosidase recorded at OD420", "setting": "Streptococcus pyogenes", "result": "No leakage"}, {"measurement": "Stability", "setting": "[2]", "result": "Stability decreased after one week"}, {"measurement": "Time peptide remained stable", "setting": "[2]; powder form, room temperature (25° C.)", "result": 6, "unit": "months"}, {"measurement": "Time peptide remained stable", "setting": "[2]; suspended in sterile distilled water, 4° C.", "result": "three weeks"}, {"measurement": "Time peptide remained stable", "setting": "[2]; suspended in sterile distilled water, −20° C.", "result": 42, "unit": "days"}, {"measurement": "Mode of action on pathogens", "setting": "[3]", "result": "acted in a bactericidal manner against most pathogens"}, {"measurement": "L. monocytogenes lower than control", "setting": "L. monocytogenes; ileum vessel, compared with the control", "result": "1×10^1 cfu/ml"}, {"measurement": "Growth of L. monocytogenes", "setting": "L. monocytogenes; jejunum vessel, reduced from 8×10^4 (control)", "result": "2×10^4"}, {"measurement": "Cytokine (TNF or IFN) expression", "setting": "[4]", "result": "did not indicate any cytokine (TNF or IFN) expression"}, {"measurement": "Effect on target cells after blocking Lipid II with vancomycin", "setting": "[5]", "result": "resulted in growth inhibition"}, {"measurement": "percentage binding to the pathogens", "setting": "pathogens tested", "result": "at least 75%"}]}]}
